Usually solubility (thermodynamic) stands for solubility found after equilibrating the solid with the medium.

We go through 14 molecules from patent publication US12637468B2, “Substituted [1,2,4]triazolo[4,3-b]pyridazines as GABAA receptor modulators” (SHANGHAI SIMR BIOTECHNOLOGY CO., LTD., priority 2019, dated 2026).

In one data set the target is T1, α5-GABAA receptor (Homo sapiens, UniProt P18507+P31644).
T1 construct: expressed in transfected cells; host or cells: HEK293, monoclonal stably transfected line
As to the kind of experiment: Cell-level screening: whole cell patch clamp, inverse agonist efficacy on α5-GABAA receptor expressed in HEK293. It counts as cell-based. As to conditions: drug 100 nM, GABA 0.05 μM, HEK293 expressing α5, β3 and γ2 subunits, clamped at −60 mV; read-out: Compound inverse agonist efficacy %. The procedure, abridged: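 Whole-cell patch clamp at −60 mV on HEK293 stably expressing α5β3γ2, pH 7.4 extracellular/CsCl internal solutions. Current evoked by 0.05 μM GABA, then compound in GABA solution; screening at 100 nM, dose-response 0.3–300 nM. Inverse agonist efficacy as % change of GABA current.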

A short description of data set [1]: Thermodynamic solubility in simulated intestinal fluid (TS in FaSSIF). It counts as physicochemical. The note with it: thermodynamic from solid, 37° C. The procedure, abridged:
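About 0.3 mg solid shaken in 1.5 mL FaSSIF-V2 at 1000 rpm, 37° C, 4 hours, in duplicate, then filtered. Filtrate quantified by HPLC-UV against 1 μM-200 μM standards diluted from 10 mM DMSO stock.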

≈ marks a conversion by molar mass, not a printed value.

T1 sequence (P31644 32-462): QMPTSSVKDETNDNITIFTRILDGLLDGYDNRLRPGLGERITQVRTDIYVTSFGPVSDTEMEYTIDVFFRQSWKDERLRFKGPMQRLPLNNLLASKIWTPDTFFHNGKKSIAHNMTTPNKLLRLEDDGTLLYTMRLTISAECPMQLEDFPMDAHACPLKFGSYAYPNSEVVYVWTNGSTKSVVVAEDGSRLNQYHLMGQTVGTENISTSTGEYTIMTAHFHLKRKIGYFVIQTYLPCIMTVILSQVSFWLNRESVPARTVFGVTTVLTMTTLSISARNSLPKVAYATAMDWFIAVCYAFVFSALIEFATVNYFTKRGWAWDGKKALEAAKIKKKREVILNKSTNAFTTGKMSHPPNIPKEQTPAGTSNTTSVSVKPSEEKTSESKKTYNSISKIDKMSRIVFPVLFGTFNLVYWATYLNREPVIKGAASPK
T1 sequence (P28472 26-473 partner): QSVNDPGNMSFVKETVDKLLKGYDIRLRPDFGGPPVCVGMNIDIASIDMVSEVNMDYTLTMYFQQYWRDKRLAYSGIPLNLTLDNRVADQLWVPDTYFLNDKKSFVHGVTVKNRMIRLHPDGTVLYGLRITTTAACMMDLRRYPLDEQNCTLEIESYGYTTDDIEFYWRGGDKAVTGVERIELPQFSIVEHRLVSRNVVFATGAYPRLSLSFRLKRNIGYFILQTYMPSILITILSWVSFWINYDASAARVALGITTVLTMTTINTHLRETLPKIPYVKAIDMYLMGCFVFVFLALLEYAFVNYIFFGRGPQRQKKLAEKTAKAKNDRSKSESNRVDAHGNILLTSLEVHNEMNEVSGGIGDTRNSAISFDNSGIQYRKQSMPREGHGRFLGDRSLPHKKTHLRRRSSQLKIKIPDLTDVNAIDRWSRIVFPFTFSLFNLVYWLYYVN
T1 sequence (P18507 40-467 isoform P18507-1 limits assumed): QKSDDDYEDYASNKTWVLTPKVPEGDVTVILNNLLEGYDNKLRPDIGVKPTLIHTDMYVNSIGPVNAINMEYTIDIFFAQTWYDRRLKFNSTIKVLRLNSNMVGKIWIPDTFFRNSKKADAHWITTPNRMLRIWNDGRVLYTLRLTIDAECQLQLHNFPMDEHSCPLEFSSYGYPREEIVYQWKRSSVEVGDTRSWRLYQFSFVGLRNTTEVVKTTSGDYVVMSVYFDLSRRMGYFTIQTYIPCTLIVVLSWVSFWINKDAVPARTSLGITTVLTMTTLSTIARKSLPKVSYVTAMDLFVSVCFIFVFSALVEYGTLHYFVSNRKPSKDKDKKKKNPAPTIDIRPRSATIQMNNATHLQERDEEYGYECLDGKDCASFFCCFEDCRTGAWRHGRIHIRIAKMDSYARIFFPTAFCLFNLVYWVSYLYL

Regarding `COCCOCc1ccc(COc2nn3c(-c4cc(C)on4)nnc3cc2OC)nn1` [Embodiment 166], on α5-GABAA receptor, the inhibition at 0.1 µM turned out to be 49.9%. The thermodynamic solubility at 4 h in data set [1] is 300 µg/mL (≈ 702 µM).

Regarding `COCc1ccc(COc2nn3c(-c4cc(C)on4)nnc3cc2OC)nn1` [Embodiment 151], the inhibition at 0.1 µM on α5-GABAA receptor is 55.8%. This molecule had a solubility (thermodynamic) at 4 h in data set [1] of 175 µg/mL (≈ 456 µM).

On to `COc1cc2nnc(-c3cc(C)on3)n2nc1OCc1ccc2c(n1)CN(C1CCOCC1)C2` [Embodiment 253], for which the inhibition at 0.1 µM at α5-GABAA receptor is 56.1%. The molecule also gave a solubility (thermodynamic) at 4 h in data set [1] of 38.9 µg/mL (≈ 83.9 µM).

Regarding `COCc1cn2nc(COc3nn4c(-c5cc(C)on5)nnc4cc3OC)ccc2n1` [Embodiment 213], the inhibition at 0.1 µM at α5-GABAA receptor was 59.5%. This molecule also registered a solubility (thermodynamic) at 4 h in data set [1] of 30.2 µg/mL (≈ 71.4 µM).

`COc1cc2nnc(-c3cc(C)on3)n2nc1OCc1ccc2c(n1)CCN(C1COC1)C2` [Embodiment 84, 3-(7-Methoxy-6-((6-(oxetan-3-yl)-5,6,7,8-tetrahydro-1,6-naphthyridin-2-yl)methoxy)-[1,2,4]triazolo[4,3-b]pyridazin-3-yl)-5-methylisoxazole]: the inhibition at 0.1 µM at α5-GABAA receptor was found to be 39.6%. This molecule registered a solubility (thermodynamic) at 4 h in data set [1] of 197 µg/mL (≈ 438 µM).

On to `COc1cc2nnc(-c3cc(C)on3)n2nc1OCc1ccc2c(n1)CN(C)C2` [Embodiment 160, 3-(7-Methoxy-6-((6-methyl-6,7-dihydro-5H-pyrrolo[3,4-b]pyridin-2-yl)methoxy)-[1,2,4]triazolo[4,3-b]pyridazin-3-yl)-5-methylisoxazole], for which the inhibition at 0.1 µM on α5-GABAA receptor worked out at 49.3%. The molecule further had a solubility (thermodynamic) at 4 h in data set [1] of 246 µg/mL (≈ 625 µM).

As for `COc1cc2nnc(-c3cc(C)on3)n2nc1OCc1ccc2c(n1)CCN(C(CO)CO)C2` [Embodiment 185], the inhibition at 0.1 µM on α5-GABAA receptor amounted to 45.6%. The same molecule registered a solubility (thermodynamic) at 4 h in data set [1] of 239 µg/mL (≈ 511 µM).

For the molecule `COc1cc2nnc(-c3cc(C)on3)n2nc1OCc1ccc(C2(F)CN(C3COC3)C2)cn1` [Embodiment 128], the inhibition at 0.1 µM on α5-GABAA receptor is 41.2%. In data set [1], the thermodynamic solubility at 4 h is 118 µg/mL (≈ 253 µM).

Consider `COc1cc2nnc(-c3cc(C)on3)n2nc1OCc1ccc(OC2CCOC2)nn1` (stereo not shown) [Embodiment 154], for which, on α5-GABAA receptor, the inhibition at 0.1 µM was 45.2%. The solubility (thermodynamic) at 4 h in data set [1] is 177 µg/mL (≈ 416 µM).

On to `COc1cc2nnc(-c3cc(C)on3)n2nc1OCc1ccc(OC2COC2)nn1` [Embodiment 153], for which the inhibition at 0.1 µM at α5-GABAA receptor worked out at 49.4%. Also, the solubility (thermodynamic) at 4 h in data set [1] is 189 µg/mL (≈ 460 µM).

With `COc1cc2nnc(-c3cc(C)on3)n2nc1OCc1ccc2c(n1)CCN(Cc1cc(C)on1)C2` [Embodiment 187], the inhibition at 0.1 µM on α5-GABAA receptor came to 50.4%. The molecule also had a thermodynamic solubility at 4 h in data set [1] of 176 µg/mL (≈ 361 µM).

Consider `COc1cc2nnc(-c3cc(C)on3)n2nc1OCc1ccc(OC2CCOCC2)nn1` [Embodiment 152], for which, on α5-GABAA receptor, the inhibition at 0.1 µM was 39.3%. This molecule displayed a thermodynamic solubility at 4 h in data set [1] of 44 µg/mL (≈ 100 µM).

In the case of `COCCCOc1ccc(COc2nn3c(-c4noc(C)n4)nnc3cc2OC)nn1` [Embodiment 129], the inhibition at 0.1 µM on α5-GABAA receptor was 45.8%. Also, the solubility (thermodynamic) at 4 h in data set [1] is 85.4 µg/mL (≈ 199 µM).

As for `COc1cc2nnc(-c3cc(C)on3)n2nc1OCc1ccc2c(n1)CCN(C1CCOCC1)C2` [Embodiment 186], the inhibition at 0.1 µM on α5-GABAA receptor came out at 56%. The same molecule displayed a thermodynamic solubility at 4 h in data set [1] of 95.4 µg/mL (≈ 200 µM).
